Paper PMC10657792, “Downstream Allosteric Modulation of NMDA Receptors by 3-Benzazepine Derivatives” (Molecular Neurobiology, 2023)
Several values for one entry are separate records, joined by “and”; a condition that tells them apart may be missing. Equal entries are not always repeated.

Experiments:
Type in all cases: cell-based
[1] = target: GluN1a wt/ GluN2B wt (Rattus norvegicus, UniProt P35439+Q00960); experiment: TEVC recording of NMDAR currents in X. laevis oocytes, inhibition by compound
Method: (§1) The NMDAR was expressed in stage V and VI oocytes originated from X. laevis. Oocytes were provided by Ecocyte Bioscience (Dortmund, Germany), and equimolar amounts of wild-type and mutated GluN1 and GluN2B cRNA were injected (0.8 ng each). The oocytes were incubated in Barth’s solution, containing (mmol l^−1): 88 NaCl, 1 KCl, 0.4 CaCl2, 0.33 Ca(NO3)2, 0.6 MgSO4, 5 TRIS–HCl, 2.4 NaHCO3, supplemented with 80 mg l^−1 theophylline, 63 mg l^−1 benzylpenicillin, 40 mg l^−1 streptomycin, and 100 mg l^−1 gentamycin and maintained at 18 °C until usage. After injection, the oocytes were incubated for 5 days at 18 °C. Subsequently, the activity of the expressed NMDARs in the oocytes was recorded by two-electrode voltage clamp (TEVC).
(§2) The compounds were retrieved as 10 mM stock solutions in DMSO and were subsequently diluted with agonist solution and adjusted to 0.1% DMSO concentration. Inhibition of each compound was measured via TEVC in X. laevis oocytes at room temperature using a Turbo Tec 10CX amplifier (NPI electronic, Tamm, Germany), NI USB 6221 DA/AD Interface (National Instruments, Austin, USA), and GePulse Software (Dr. Michael Pusch, Genova, Italy). Ba^2+-Ringer, consisting of 10 mM HEPES, 90 mM NaCl, 1 mM KCl, and 1.5 mM BaCl2, adjusted to pH 7.4, was used for TEVC measurements. Agonist solution containing 10 µM glycine and 10 µM (S)-glutamate was prepared in Ba^2+-Ringer, and the measurements were performed at a holding potential of − 70 mV, using electrodes with a glass capillary filled with 3 M KCl and a resistance between 0.5 and 1.5 MΩ. The compounds were tested by applying ascending concentrations, ranging from 1 to 30,000 nM, in at least six oocytes. Example traces for all recorded conditions can be found in Supplementary Figs. S2–S9.
(§3) TEVC data were analyzed using Ana (Dr. Michael Pusch, Genova, Italy), and statistics were performed using OriginPro 2020 (OriginLab Corporation, Northampton, USA). The inhibitory effect of each compound is calculated using the following equation: inhibition=1-Ic-Ih/Ia-Ih where Ih describes the current in the absence of agonists; Ia represents the steady-state current in the presence of the agonists; and Ic is defined as the steady-state after binding of agonist and compound. All dose response curves are fitted to the following logistic equation: y=A1-A2/1+x/x0^p+A2 where A1 describes the minimal inhibition of a compound and was set to 0; A2 represents the maximal inhibition of a compound; p is the slope of the curve; x0 is defined as the concentration at half-maximal inhibition; and x is the tested concentration. Data were statistically analyzed by one-way ANOVA and Tukey post-hoc mean comparison test in OriginPro 2020 (OriginLab Corporation, Northampton, USA). p values are indicated by * for p < 0.05, ** for p < 0.01, and *** for p < 0.001.

[2] = target: GluN1b wt/ GluN2B wt (Rattus norvegicus, UniProt P35439+Q00960); experiment: as above
Method: as §1, §2, §3

[3] = tested on: GluN1b wt/ GluN2B wt; experiment: as above; settings: X. laevis oocytes; higher for GluN1-1b
Method: as §1, §2, §3

[4] = target: T1, GluN1-1a/GluN2B (Rattus norvegicus, UniProt P35439+Q00960); experiment: Single-channel patch clamp recordings (cell-attached) in CHO cells: open time, open channel probability; settings: 1 µM compound, without exon 5
T1 construct: eGFP; DsRed2 (C); expressed in transfected cells; host or cells: CHO cells (constructs a gift from Prof. Hollmann, Bochum)
Method: (§4) Chinese hamster ovary (CHO) cells were co-transfected with GluN1-1a eGFP and GluN2B pDsRed2-N1 or GluN1-1b eGFP and GluN2B pDsRed2-N1. The constructs were a generous gift from Prof. Hollmann (Bochum, Germany). GluN1-1b eGFP was obtained by subcloning of GluN1-1b in eGFP using BssHII and BtrI. Single-channel patch clamp recordings were performed at room temperature using an Axopatch 200B amplifier (Molecular Devices, USA). The patch clamp experiments on cultured CHO cells were done using Clampex 10.7 software (Molecular Devices, USA). Single-channel recordings were performed in the cell-attached configuration. Borosilicate glass pipettes with a resistance of 2–3 MΩ were backfilled with internal solution, consisting of 125 mM NaCl, 3 mM KCl, 1.25 mM NaH2PO4, 0.85 mM CaCl2, and 20 mM HEPES, 100 nM (S)-glutamate, and 20 µM glycine, adjusted to pH 7.4. During the recordings, the cells were continuously flushed with external solution, consisting of 141 mM potassium gluconate, 2.5 mM NaCl, 11 mM EGTA, and 10 mM HEPES, adjusted to pH 7.4 by KOH. The antagonist solution was prepared by adding 1 µM (R)-OF-NB1. All solutions were adjusted to a DMSO concentration of 0.1%. NMDA currents were measured by clamping GluN1-1a/GluN2B or GluN1-1b/GluN2B wild-type expressing CHO cells at − 70 mV. […] Data analysis was performed and evaluated using Clampfit 10.7 (Molecular Devices, USA).

[5] = target: T2, GluN1-1b/GluN2B (Rattus norvegicus, UniProt P35439+Q00960); experiment: as above; settings: 1 µM compound, exon 5 present
T2 construct: eGFP; DsRed2 (C); expressed in transfected cells; host or cells: CHO cells
Method: as §4

[6] = oocytes, 10 µM glycine + 10 µM (S)-glutamate, -70 mV, fitted curve

GluN1a wt/ GluN2B wt, sequence (Q00960 27-1482, other chains not shown): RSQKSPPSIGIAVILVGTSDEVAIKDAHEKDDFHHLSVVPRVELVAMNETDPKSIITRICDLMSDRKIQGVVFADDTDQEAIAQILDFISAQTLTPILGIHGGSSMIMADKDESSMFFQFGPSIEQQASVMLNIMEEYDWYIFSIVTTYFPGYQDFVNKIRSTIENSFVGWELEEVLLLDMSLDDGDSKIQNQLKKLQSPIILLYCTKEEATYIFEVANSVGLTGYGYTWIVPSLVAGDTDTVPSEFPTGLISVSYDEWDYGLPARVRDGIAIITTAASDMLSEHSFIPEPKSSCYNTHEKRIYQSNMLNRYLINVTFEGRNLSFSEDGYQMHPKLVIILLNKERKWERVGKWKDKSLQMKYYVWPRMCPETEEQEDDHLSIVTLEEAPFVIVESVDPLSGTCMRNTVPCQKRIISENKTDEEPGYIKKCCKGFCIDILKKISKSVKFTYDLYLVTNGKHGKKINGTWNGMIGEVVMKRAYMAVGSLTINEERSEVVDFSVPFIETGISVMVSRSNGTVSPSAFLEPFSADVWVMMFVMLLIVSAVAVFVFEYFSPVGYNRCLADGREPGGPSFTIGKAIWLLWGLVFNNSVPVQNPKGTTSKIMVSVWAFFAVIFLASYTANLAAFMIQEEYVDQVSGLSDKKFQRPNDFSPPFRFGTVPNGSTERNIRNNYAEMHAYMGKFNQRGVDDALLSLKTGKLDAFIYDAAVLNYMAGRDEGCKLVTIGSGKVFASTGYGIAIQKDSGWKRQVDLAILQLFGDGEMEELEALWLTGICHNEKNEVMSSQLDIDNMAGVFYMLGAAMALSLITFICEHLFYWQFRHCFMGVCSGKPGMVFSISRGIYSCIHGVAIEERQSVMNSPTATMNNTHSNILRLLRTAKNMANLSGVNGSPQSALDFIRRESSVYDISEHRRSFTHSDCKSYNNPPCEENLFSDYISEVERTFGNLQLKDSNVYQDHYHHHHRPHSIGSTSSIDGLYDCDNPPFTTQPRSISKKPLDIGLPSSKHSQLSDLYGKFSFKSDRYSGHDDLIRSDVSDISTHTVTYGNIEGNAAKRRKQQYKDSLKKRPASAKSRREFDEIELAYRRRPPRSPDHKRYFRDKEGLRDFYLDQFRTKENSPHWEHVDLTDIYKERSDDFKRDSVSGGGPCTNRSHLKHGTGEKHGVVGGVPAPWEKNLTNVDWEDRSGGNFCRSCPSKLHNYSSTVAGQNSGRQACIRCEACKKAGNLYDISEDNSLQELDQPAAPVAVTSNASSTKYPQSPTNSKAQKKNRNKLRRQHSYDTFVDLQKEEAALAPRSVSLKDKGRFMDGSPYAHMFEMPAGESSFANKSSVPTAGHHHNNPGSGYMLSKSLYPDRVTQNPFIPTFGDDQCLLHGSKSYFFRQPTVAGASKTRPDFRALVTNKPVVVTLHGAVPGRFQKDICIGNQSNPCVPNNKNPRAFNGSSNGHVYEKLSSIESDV
GluN1b wt/ GluN2B wt (Rattus norvegicus, UniProt P35439+Q00960), sequence (Q00960 27-1482, other chains not shown): as above
T1 sequence (Q00960 27-1482, other chains not shown): as above

inhibition at 10 µM ([1]; GluN1-1a/ GluN2B, compound concentration 10 μM, single oocytes): 88.1%
inhibition at 30 µM ([1]; GluN1-1a/ GluN2B, compound concentration 30 μM, single oocytes): 91.8%
antagonist concentration at which oocytes were already inhibited ([1]; TEVC example traces): 0.001 µM
Hill coefficient ([1]; fitted curve): 0.9
IC50 [1, 6]: 0.097 µM
inhibition at 1 µM ([2]; GluN1-1b, compound 1000 nM, single oocyte): 72.1%
inhibition at 10 µM ([2]; GluN1-1b, compound 10000 nM, single oocyte): 82.7%
inhibition at 30 µM ([2]; GluN1-1b, compound 30000 nM, single oocyte): 84.9%
inhibition at 30 µM ([2]; GluN1-1b/ GluN2B, compound concentration 30 μM, single oocytes): 86.1%
antagonist concentration at which oocytes were inhibited ([2]; TEVC example traces): ~ 1 µM
A2 (level of maximal inhibition) ([2]; fitted curve): 84.8%
Hill coefficient ([2]; fitted curve): 6.2
IC50 [2, 6]: 0.675 µM
IC50 of splice variant containing exon 5 (GluN1-1b) relative to IC50 of GluN1-1a [3]: sevenfold
SMILES: Oc1ccc2c(c1)CCN(CCCCc1ccccc1F)C[C@@H]2O [(R)-OF-NB1]
inhibition (%) ([2]; GluN1-1b, compound 10 nM, single oocyte, 0.01 µM): -3.681% and 0.325% and 2.192% and 0.884% and -0.428% and 3.985% and 0.078% and 0.089%
inhibition (%) ([2]; GluN1-1b/ GluN2B, compound concentration 0.001 μM, single oocytes, 0.001 µM): 0.0934% and -0.03337% and 1.1426% and -0.02965% and -0.02382% and 0.3791% and 0.2758%
inhibition (%) ([2]; GluN1-1b/ GluN2B, compound concentration 0.01 μM, single oocytes, 0.01 µM): -0.2599% and -0.1168% and -0.1502% and 0.03902% and 1.645% and -0.1483% and 0.439% and 0.2911%
effect on open time of NMDAR [4]: did not result in a significant reduction
effect on open time of NMDAR [5]: did not result in a significant reduction
